Experimental data reported in patent US12357632B2, “Methods of treating cholangiocarcinoma” (QED Therapeutics, Inc., priority 2019, dated 2025).
“Also recorded” adds a separate entry of the source.

Experiments:
[1] = tested on: advanced or metastatic cholangiocarcinoma with FGFR genetic alterations; assay: Phase II study of oral BGJ398 in advanced or metastatic cholangiocarcinoma, Patient 5010004 (RECIST v1.1); type: in vivo, human
Description: This is a multi-center, open label, single arm phase II study evaluating BGJ398 anti-tumor activity in advanced or metastatic cholangiocarcinoma patients with FGFR genetic alterations. 125 mg of oral, monotherapy BGJ398 is administered once daily for the first 3 weeks (21 days) of each 28-day cycle. The starting dose of 125 mg may be reduced to 100 mg, 75 mg, or 50 mg. The treatment period begins on Cycle 1, Day 1, and continues until disease progression, unacceptable toxicity, withdrawal of informed consent, or death. Patients are evaluated for tumor response radiographically every 8 weeks until disease progression or discontinuation from study using RECIST v1.1 criteria.
Adult patients with histologically or cytologically confirmed advanced or metastatic cholangiocarcinoma with FGFR2 gene fusions or translocations or other FGFR genetic alteration who have evidence of radiologic progression following a cisplatin- and gemcitabine-containing regimen for advanced disease or a gemcitabine-containing regimen for those who are considered intolerant to cisplatin are enrolled. Up to approximately 160 adult patients over age 18, both male and female are enrolled. Three cohorts of patients comprise the study population: • Cohort 1: ˜120 patients, 108 with FGFR2 gene fusions or translocations and 12 with other FGFR genetic alterations. • Cohort 2: ˜20 patients with FGFR genetic alterations other than FGFR2 gene fusions or translocations. • Cohort 3: Up to ˜20 patients with FGFR2 gene fusions or translocations who have received a prior FGFR inhibitor. Main Inclusion Criteria
Tumor response according to RECIST v1.1, and survival.
During treatment with infigratinib, the patient's response was determined by follow-up assessments conducted by a local investigator per RECIST v1.1.

[2] = Tolerability (body weight, clinical observations) in UREx-MR2057PD-AR xenograft study; type: in vivo, Mouse (Mus musculus)
Description: All animals were weighed at the same time as tumor size measurement. A Relative Body Weight loss (RBW loss) was considered as adverse effect of the treatment.
Mice were observed every day for physical appearance, behavior and clinical changes.
Relative Body Weight (RBW) is calculated for each measurement by dividing the body weight by the body weight at the start of treatment.
Individual Body weight loss percent (% BWL)=100−(BWX/BW0×100), where BWX is the BW at any day during the treatment and BW0 is the BW on the day of inclusion.
Mean Body weight loss percent (% BWL)=100−(mean BWX/mean BW0×100), where BWX is the mean BW at any day during the treatment and BW0 is the mean BW on the day of inclusion.

[3] = infigratinib 50 mg/kg PO qdx21, on D21

## CCN1CCN(c2ccc(Nc3cc(N(C)C(=O)Nc4c(Cl)c(OC)cc(OC)c4Cl)ncn3)cc2)CC1 [Infigratinib, 3-(2,6-dichloro-3,5-dimethoxyphenyl)-1-{6-[4-(4-ethyl-1-piperazin-1-yl)phenylamino]-pyrimidinyl-4-yl}-1-methylurea]
[1]; Patient 5010004, Study Day 54
  New Lesion: No
  Non-Target Lesion Response: Non-CR^1/Non-PD^2
  Overall Response: Stable disease
  Target Lesion % Change from Baseline: 18.33%
[1]; Patient 5010004, Study Day 83
  New Lesion: No
  Non-Target Lesion Response: Non-CR/Non-PD
  Overall Response: Stable disease
  Target Lesion % Change from Baseline: 16.33%
[1]; Patient 5010004, Study Day 110
  New Lesion: No
  Non-Target Lesion Response: Non-CR/Non-PD
  Overall Response: Stable disease
  Target Lesion % Change from Baseline: 16.33%
[1]; Patient 5010004, Study Day 153
  New Lesion: No
  Non-Target Lesion Response: Progressive
  Overall Response: Progressive
  Target Lesion % Change from Baseline: 31.63%
[1]; Patient 5010004, first 3 follow-up assessments, local investigator, RECIST v1.1
  duration of stable disease: at least 4 months
[1]; Patient 5010004, study treatment
  time to discontinuation for progressive disease: approximately 5 months
[2]; infigratinib 30 mg/kg PO qdx21
  clinical observations: All mice had hollow at the level of sternum from D15 to D21
  mean body weight loss: no mean body weight loss
  tolerability: well tolerated
[2]; infigratinib 30 mg/kg PO qdx21, on D3
  maximum individual body weight loss: 3.5%
[2]; infigratinib 50 mg/kg PO qdx21
  clinical observations: All mice had hollow at the level of sternum from D15 to D21
[2]; [3]
  maximum individual body weight loss: 17.8%
  mean body weight loss: 6.6%
[2]; infigratinib 50 mg/kg PO qdx21, listed as infigratinib
  tolerability: tolerated; also recorded: slight but statistically significant and progressive BWL
